Reference: paper PMC6952103, “Biochemical characterization of Ty1 retrotransposon protease” (PLoS ONE, 2020)
“And” between values parts separate entries of the source, which are not always exact repeats. Equal entries are not always repeated. “Also recorded” adds a separate entry of the source. Where two headings read alike, the source gives them in different places.

Tests used:
XMRV PR = conditions: cited from earlier work
Text: (§1) Despite the fact that out of the tested inhibitors only acet ...

Ty1 PR-His6 [1] = molecular target: T1, Ty1 PR-His6 (Saccharomyces cerevisiae, UniProt Q07793); assay: Inhibition study of Ty1 PR-His6; type: biochemical; conditions: Ty1 PR-His6 (400–1600 nM), VPTIN*NVHTS 0.44 mM, inhibitor ≥100 nM final, DMSO, peptide buffer A, 2 h at 30°C
T1 construct: made in house; host or cells: E. coli BL21(DE3), pET11a Gag-PR-His6 (gift of J.F. Lawler); soluble fraction, Ni-chelate chromatography, autoprocessed
T1 sequence (Q07793 402-582 limits assumed): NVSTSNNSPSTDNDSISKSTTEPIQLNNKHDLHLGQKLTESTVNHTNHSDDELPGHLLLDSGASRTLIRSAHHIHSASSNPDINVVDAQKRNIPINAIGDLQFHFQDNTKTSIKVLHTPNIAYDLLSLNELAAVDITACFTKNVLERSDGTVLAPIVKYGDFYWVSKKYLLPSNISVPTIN
Description: Ty1 PR-His6 activity was measured in the presence of various HIV-1 protease inhibitors. […] To study effect of inhibitors on proteolytic activity, reaction mixtures contained 5 μl purified Ty1 PR-His6 (400–1600 nM), 10 μl peptide buffer A, 4.8 μl oligopeptide substrate (VPTIN*NVHTS, 0.44 mM), and 0.2 μl inhibitor. For screening, inhibitors were dissolved in DMSO to have ≥100 nM final concentration. DMSO solution containing no inhibitor was used as control. Reaction mixtures were incubated for 2 h at 30°C.

[2] = molecular target: Copia transposon protease; conditions: ref [17]; cited from earlier work
Text: as §1

HIV-1 PR = conditions: cited from earlier work
Text: For instance, the optimal pH of HFV protease is 6.6–6.8 [40] while that of HIV-1 PR is between 4 and 6 [41]. […] Higher sensitivity to urea implies lower dimer stability for Ty1 protease, the possible structural background of this difference is discussed later in the In silico structural analysi ... || (+ 1 further places)

Ty1 PR = molecular target: T2, Ty1 PR (Saccharomyces cerevisiae, UniProt Q07793); assay: Oligopeptide-based proteolytic assay (HPLC), untagged Ty1 PR; type: biochemical; conditions: peptide buffer A pH 7.0, 30 °C; for cleavage (in words): Ty1 PR, oligopeptide substrate 2 mg/ml stock, 2 up to 5 h
T2 construct: the protease domain of Ty1 is unusually long, consisting of 181 residues; made in house; host or cells: E. coli BL21(DE3), pET11a
T2 sequence (Q07793 402-582 limits assumed): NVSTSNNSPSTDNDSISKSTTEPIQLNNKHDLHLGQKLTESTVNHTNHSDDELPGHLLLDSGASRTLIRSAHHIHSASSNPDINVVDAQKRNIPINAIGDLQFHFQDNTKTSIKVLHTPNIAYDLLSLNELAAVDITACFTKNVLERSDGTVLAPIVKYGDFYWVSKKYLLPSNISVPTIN
Description: (§2) The oligopeptides used in the proteolytic assays (Table 1A) were synthesized as previously described. Reaction mixtures contained 10 μl peptide buffer A (20 mM PIPES, 100 mM NaCl, 0.5% Nonidet P-40, 10% glycerol, 2 mM dithiotreitol (DTT), pH 7.0), 5 μl purified Ty1 PR-His6 (processed from Ty1 Gag-PR-His6) or Ty1 PR, and 5 μl oligopeptide substrate (2 mg/ml) dissolved in water. Reaction mixtures were incubated for the different experiments from 2 up to 5 h at 30°C. The reactions were stopped by the addition of 180 μl 1% trifluoroacetic acid (TFA).
(§3) The products were separated by an HPLC-based method using a 0–100% water-acetonitrile gradient in the presence of TFA on Merck Hitachi instrument. For enzyme kinetic measurements, VPTIN*NVHTS oligopeptide substrate (representing Ty1 PR/IN cleavage site) was used at 0.2–1.2 mM; Ty1 PR (400–1600 nM) was incubated with the substrate at 30 °C for 2 h, whereas Ty1 PR-His6 (500–1500 nM) was incubated for 2.5 h. Kinetic parameters (shown in Table 1A) were determined by fitting the data obtained at less than 20% substrate hydrolysis to the Michaelis-Menten equation using GraphPad Prism version 5.00 for Windows (GraphPad Software, La Jolla California USA, www.graphpad.com). Statistical significances were determined by GraphPad QuickCalcs (https://www.graphpad.com/quickcalcs/ttest2).
(§4) For investigation of optimal conditions for enzyme folding, Ty1 PR was dialyzed against various buffers and buffer combinations that have been shown previously to be suitable for retroviral protease activity. In peptide-based assays, both protease and oligopeptide solutions were added to the buffer, and the reaction mixtures were incubated at 30°C, and stopped by the addition TFA. The mixtures were then injected onto a reversed-phase chromatography column in order to separate substrates and cleavage products, the substrate turnover was determined by integration of peak areas.

HFV PR = conditions: ref [40], cited from earlier work; for kcat/Km: buffer optimized for that protease
Text: Similarly low catalytic activities were also observed previously for HFV and the Gag-encoded Avian myeloblastosis virus (AMV) proteases. Both the untagged, and the His6-tagged (self-processed) PRs cleaved th ...

Ty1 PR-His6 [3] = molecular target: T1, Ty1 PR-His6; assay: Oligopeptide-based proteolytic assay (HPLC), Ty1 PR-His6; type: biochemical; conditions: for cleavage (in words): Ty1 PR-His6, oligopeptide substrate 2 mg/ml stock, 2 up to 5 h
Description: as §2, §3, §4

[4] = system: Copia transposon protease; conditions: ref [17], cited from earlier work
Description: The dependence of enzyme activity on ionic strength was studied, and highest activities were measured at 1.5–2 M NaCl concentration (Fig 4A). […] For instance, the optimal pH of HFV protease is 6.6–6.8 [40] while that of HIV-1 PR is between 4 and 6 [41].

[5] = Ty1 PR (400–1600 nM), substrate 0.2–1.2 mM, 2 h, SD (n≥2)
[6] = Ty1 PR-His6 (500–1500 nM), substrate 0.2–1.2 mM, peptide buffer A pH 7.0, 30 °C, 2.5 h, HPLC, SD (n≥2)
[7] = peptide buffer A pH 7.0, 30 °C, HPLC

## O=C1N(Cc2ccc(CO)cc2)[C@H](Cc2ccccc2)[C@H](O)[C@@H](O)[C@@H](Cc2ccccc2)N1Cc1ccc(CO)cc1 [DMP-323]
XMRV PR; ref [45]
  inhibition (in words): able to inhibit
Ty1 PR-His6 [1]
  inhibition of proteolytic activity (in words): unable to inhibit

## COC(=O)N[C@H](C(=O)N[C@@H](Cc1ccccc1)[C@@H](O)CN(Cc1ccc(-c2ccccn2)cc1)NC(=O)[C@@H](NC(=O)OC)C(C)(C)C)C(C)(C)C [atazanavir]
XMRV PR; ref [45]
  inhibition (in words): able to inhibit
Ty1 PR-His6 [1]
  inhibition of proteolytic activity (in words): unable to inhibit

## CC(C)CN(C[C@@H](O)[C@H](Cc1ccccc1)NC(=O)O[C@H]1CO[C@H]2OCC[C@H]21)S(=O)(=O)c1ccc(N)cc1 [darunavir]
XMRV PR; ref [45]
  inhibition (in words): able to inhibit
Ty1 PR-His6 [1]
  inhibition of proteolytic activity (in words): unable to inhibit

## CC(C)CN(C[C@@H](O)[C@H](Cc1ccccc1)NC(=O)O[C@H]1CCOC1)S(=O)(=O)c1ccc(N)cc1 [amprenavir]
XMRV PR; ref [45]
  inhibition (in words): able to inhibit
Ty1 PR-His6 [1]
  inhibition of proteolytic activity (in words): unable to inhibit

## pepstatin A
XMRV PR; ref [29]
  inhibition (in words): weak inhibitors
[2]
  Ki: 15 nM
Ty1 PR-His6 [1]
  inhibition of proteolytic activity (in words): no inhibitory potential; also recorded: unable for the inhibition

## HIV-1 PR: human immunodeficiency virus type 1 protease
HIV-1 PR; HIV-1 PR, 37°C, ref [41]
  activity at 37°C (in words): highly active
HIV-1 PR; HIV-1 PR, ref [29]
  UC50 (urea): 1.47 M

## CC(C)(C)NC(=O)[C@@H]1C[C@@H]2CCCC[C@@H]2CN1C[C@@H](O)[C@H](Cc1ccccc1)NC(=O)[C@H](CC(N)=O)NC(=O)c1ccc2ccccc2n1 [saquinavir]
Ty1 PR-His6 [1]
  inhibition of proteolytic activity (in words): unable to inhibit

## Cc1c(O)cccc1C(=O)N[C@@H](CSc1ccccc1)[C@H](O)CN1C[C@H]2CCCC[C@H]2C[C@H]1C(=O)NC(C)(C)C [nelfinavir]
Ty1 PR-His6 [1]
  inhibition of proteolytic activity (in words): unable to inhibit

## VPTIN*NVHTS [synthetic oligopeptide substrate representing the PR/IN cleavage site of Ty1]
Ty1 PR; [5]
  Km: 210 ± 70 µM
  kcat: 0.006 ± 0.001 s⁻¹
  kcat/Km: 0.028 ± 0.0105 mM⁻¹ s⁻¹
Ty1 PR
  cleavage (in words): cleaved
HFV PR
  kcat/Km: 0.007 mM⁻¹ s⁻¹ and 0.007 ± 0.0024 mM⁻¹ s⁻¹
  Km: 30 ± 10 µM
  kcat: 0.0002 ± 0.00003 s⁻¹
Ty1 PR-His6 [3]; [6]
  Km: 250 ± 90 µM
  kcat: 0.009 ± 0.001 s⁻¹
  kcat/Km: 0.036 ± 0.0132 mM⁻¹ s⁻¹
Ty1 PR-His6 [3]; [7]
  cleavage (in words): cleaved
Ty1 PR-His6 [3]; Ty1 PR-His6 versus untagged Ty1 PR
  difference of specificity constants between untagged Ty1 PR and Ty1 PR-His6 (in words): not significant statistically

## IHLIA*AVKAV [synthetic oligopeptide substrate representing the IN/RT cleavage site of Ty1]
Ty1 PR
  cleavage (in words): no cleavage was observed
HFV PR
  kcat/Km: 0.002 ± 0.0004 mM⁻¹ s⁻¹
  Km: 1000 ± 160 µM
  kcat: 0.0020 ± 0.0002 s⁻¹
Ty1 PR-His6 [3]; [7]
  cleavage (in words): no cleavage was observed

## Cc1cccc(C)c1OCC(=O)N[C@@H](Cc1ccccc1)[C@@H](O)C[C@H](Cc1ccccc1)NC(=O)[C@H](C(C)C)N1CCCNC1=O [lopinavir]
XMRV PR; ref [45]
  inhibition (in words): able to inhibit
Ty1 PR-His6 [1]
  inhibition of proteolytic activity (in words): unable to inhibit

## T26S mutant HIV-1 protease
HIV-1 PR; T26S mutant, ref [49]
  specific activity compared to wild-type (in words): lower specific activity

## CCC[C@@]1(CCc2ccccc2)CC(O)=C([C@H](CC)c2cccc(NS(=O)(=O)c3ccc(C(F)(F)F)cn3)c2)C(=O)O1 [tipranavir]
XMRV PR; ref [45]
  inhibition (in words): able to inhibit
Ty1 PR-His6 [1]
  inhibition of proteolytic activity (in words): unable to inhibit

## TARAH*NVSTS [synthetic oligopeptide substrate representing the Gag/PR cleavage site of Ty1]
Ty1 PR
  cleavage (in words): no cleavage was observed
HFV PR
  hydrolysis (in words): not hydrolyzed
Ty1 PR-His6 [3]; [7]
  cleavage (in words): no cleavage was observed

B1: Copia transposon protease: Copia transposon protease of D. melanogaster (protein, UniProt P04146 271-1409, looked up)
Copia protease: IAFMVKEVNNTSVMDNCGFVLDSGASDHLINDESLYTDSVEVVPPLKIAVAKQGEFIYATKRGIVRLRNDHEITLEDVLFCKEAAGNLMSVKRLQEAGMSIEFDKSGVTISKNGLMVVKNSGMLNNVPVINFQAYSINAKHKNNFRLWHERFGHISDGKLLEIKRKNMFSDQSLLNNLELSCEICEPCLNGKQARLPFKQLKDKTHIKRPLFVVHSDVCGPITPVTLDDKNYFVIFVDQFTHYCVTYLIKYKSDVFSMFQDFVAKSEAHFNLKVVYLYIDNGREYLSNEMRQFCVKKGISYHLTVPHTPQLNGVSERMIRTITEKARTMVSGAKLDKSFWGEAVLTATYLINRIPSRALVDSSKTPYEMWHNKKPYLKHLRVFGATVYVHIKNKQGKFDDKSFKSIFVGYEPNGFKLWDAVNEKFIVARDVVVDETNMVNSRAVKFETVFLKDSKESENKNFPNDSRKIIQTEFPNESKECDNIQFLKDSKESENKNFPNDSRKIIQTEFPNESKECDNIQFLKDSKESNKYFLNESKKRKRDDHLNESKGSGNPNESRESETAEHLKEIGIDNPTKNDGIEIINRRSERLKTKPQISYNEEDNSLNKVVLNAHTIFNDVPNSFDEIQYRDDKSSWEEAINTELNAHKINNTWTITKRPENKNIVDSRWVFSVKYNELGNPIRYKARLVARGFTQKYQIDYEETFAPVARISSFRFILSLVIQYNLKVHQMDVKTAFLNGTLKEEIYMRLPQGISCNSDNVCKLNKAIYGLKQAARCWFEVFEQALKECEFVNSSVDRCIYILDKGNINENIYVLLYVDDVVIATGDMTRMNNFKRYLMEKFRMTDLNEIKHFIGIRIEMQEDKIYLSQSAYVKKILSKFNMENCNAVSTPLPSKINYELLNSDEDCNTPCRSLIGCLMYIMLCTRPDLTTAVNILSRYSSKNNSELWQNLKRVLRYLKGTIDMKLIFKKNLAFENKIIGYVDSDWAGSEIDRKSTTGYLFKMFDFNLICWNTKRQNSVAASSTEAEYMALFEAVREALWLKFLLTSINIKLENPIKIYEDNQGCISIANNPSCHKRAKHIDIKYHFAREQVQNNVICLEYIPTENQLADIFTKPLPAARFVELRDKLGLLQDDQSNAE
modifications: Copia protease
notes: Copia transposon protease of D. melanogaster
[4]; 20–70°C temperature range
  relative activity: ≥ 50%
[4]; Copia transposon protease
  NaCl concentration of highest activity: 2 M
  pH at which synthetic substrate is cleaved most efficiently: 4.0
  temperature of highest activity: 70 °C
